Test results taken from article PMC10818380, “Triphenylphosphonium Analogs of Short Peptide Related to Bactenecin 7 and Oncocin 112 as Antimicrobial Agents” (Pharmaceutics, 2024).
Read-outs that look alike come from different tables or passages of the source. Peptide text beside a SMILES is read from it. * marks the point of attachment. X3 = O=C(CCCCCCCCCC[P+](c1ccccc1)(c1ccccc1)c1ccccc1)*

What was measured:
E. coli BW25113 = experiment: microbe, parasite or virus in culture; format: cell-based; settings: E. coli BW25113, 37 °C, 18 h
Description: (§1) The MIC values for Bac(1–10), Bac(1–10, R/Y), Bac(1–10, R/Y)-Cn-TPP, TPP-C10-Bac(1–10, R/Y), and Onc112 were determined via LB broth microdilution, as recommended by CLSI in the Methods for Dilution Antimicrobial Susceptibility Tests for Bacteria that Grow Aerobically, Approved Standard, 9th ed., CLSI document M07-A9, using in-house-prepared panels. The compounds were diluted in a 96-well microtiter plate to final concentrations ranging from 0.1 to 100 µM in a 200 µL aliquot of the bacterial suspension, followed by incubation at 37 °C for 18 h. The cell concentration was estimated according to the absorbance (A600). The measurements were performed with a VICTOR X5 Multilabel Plate Reader (PerkinElmer, Waltham, MA, USA). The following bacterial strains were used: E. coli BW25113, E. coli JW0368 ΔsbmA, B. subtilis 168, and B. subtilis CFR [39].

B. subtilis 168 = experiment: microbe, parasite or virus in culture; format: cell-based; settings: B. subtilis 168, 37 °C, 18 h
Description: as §1

E. coli JW0368 ΔsbmA = experiment: microbe, parasite or virus in culture; format: cell-based; settings: for MIC: E. coli ∆sbmA, 37 °C, 18 h; for comparison of MIC values, E. coli ΔsbmA versus wild type: MIC values of Table 1
Description: as §1

B. subtilis CFR = experiment: microbe, parasite or virus in culture; format: cell-based; settings: 18 h
Description: as §1

A549 = experiment: cells
Description: (§2) The cytotoxicity of the substances under study was tested using the MTT (3-(4,5-dimethylthiazol-2-yl)-2,5-diphenyltetrazolium bromide) assay with some modifications. The detailed procedure for the MTT assay is given in the Supplementary Materials (Section S5).
(§3) Two thousand five hundred cells per well for the MCF7, HEK293T, and A549 cell lines or 4000 cells per well for the VA13 cell line were plated in 135 µL of DMEM-F12 media with 10% FBS (both Gibco, Waltham, MA, USA) in a 96-well plate and were incubated in a 5% CO2 incubator for the first 16 h, without treatment. Then 15 µL of media-DMSO solutions of the tested substances were added to the cells (the final DMSO concentrations in the media were 1% or less), and the cells were treated for 72 h with 25 nM–50 µM (eight dilutions) of the tested substances (triplicate each). Serial dilutions of DMSO and doxorubicin were used as controls. The MTT reagent (Paneco LLC, Moscow, Russia) was then added to the cells at a final concentration of 0.5 g/L (10× stock solution in PBS was used) and incubated for 2.5 h at 37 °C in the incubator under an atmosphere of 5%
(§4) CO2. The MTT solution was then discarded, and 140 µL of DMSO (PharmaMed LLC, Krasnodar, Russia) was added. The plates were swayed on a shaker (60 rpm) to dissolve the formazan. The absorbance was measured using the VICTOR X5 Multilabel Plate Reader (PerkinElmer, Wa l th a m, MA, USA) at a wavelength of 565 nm (in order to measure formazan concentration). The resu l ts were used to construct a dose-response graph and to estimate IC50 values.
(§5) Figure S11.The dependencies of viability of cells after treatment by tested compounds.
(§6) (1 picture or pasted object on this page, not shown here)

MCF7 = experiment: cells; format: cell-based, human
Description: as §2, §3, §4, §5, §6

VA13 = experiment: cells; format: cell-based, human
Description: as §2, §3, §4, §5, §6

HEK293T = experiment: cells; format: cell-based, human; settings: 72 h
Description: as §2, §3, §4, §5, §6

[1] = system: E. coli JW5503 (∆tolC) (KanS) pDualrep2; experiment: pDualrep2 double-reporter agar plate test; format: cell-based; settings: 1 µL of 10 mM solution on agar plate
Description: The “pDualrep2” system was used to evaluate the mechanism of the antimicrobial action of the synthesized compounds. This system is based on the hypersensitive strain E. coli JW5503 (∆tolC) (KanS) transformed with the “pDualrep2” plasmid, which allows one to sort out suppressors of protein synthesis or SOS response inducers. Briefly, 1 µL of 10 mM water solutions of Bac(1–10), Bac(1–10, R/Y), Bac(1–10, R/Y)-Cn-TPP, TPP-C10-Bac(1–10, R/Y), and Onc112 were applied onto the agar plate that already contained a layer of the reporter strain E. coli JW5503 (∆tolC) (KanS) pDualrep2, and then the plate was incubated overnight at 37 °C. The agar plate was scanned using the ChemiDoc^TM Imaging System (Bio-Rad Laboratories, Hercules, CA, USA), containing two channels, “Cy3-blot” (553/574 nm; green pseudocolor) for Turbo Red Fluorescent Protein (TurboRFP) detection and “Cy5-blot” (588/633 nm; red pseudocolor) for Katushka2S fluorescence. […] Levofloxacin (LEV; 50 μg/mL, 1 μL) and erythromycin (ERY; 5 mg/mL, 1 μL) were utilized as positive controls for DNA and protein synthesis inhibitors, respectively.

B. subtilis = experiment: Membrane potential with fluorescent probe diS-C3-(5); format: cell-based; settings: 2.5 µM, diS-C3-(5) fluorescence
Description: The membrane potential of B. subtilis was assessed by measuring the fluorescence emitted by the potential-dependent probe, diS-C3-(5). Bacterial cells derived from the overnight culture of B. subtilis were inoculated into a fresh LB medium and allowed to grow for 24 h until reaching an optical density of 0.8 at 600 nm. Subsequently, the bacteria were subjected to a 20-fold dilution in a buffer comprising 100 mM of KCl and 10 mM of Tris, adjusted to a pH of 7.4. Fluorescence measurements were conducted at 670 nm (with excitation at 630 nm) using a Fluorat-02-Panorama fluorimeter manufactured by Lumex Instruments in St. Petersburg, Russia.

70S E. coli ribosome = experiment: Competition-binding assay, displacement of BODIPY-Bac(1–10), fluorescence anisotropy; settings: CI (α = 0.05), read-out: apparent dissociation constant (KD)
Description: 70S ribosomes were isolated from E. coli MRE600 cells according to a published procedure. The binding of BODIPY-Bac(1–10) to 70S E. coli ribosomes was performed according to the following procedure. BODIPY-Bac(1–10) (16 nM) was incubated with ribosomes (from 0.5 nM to 2000 nM) for 2 h at 26 °C in a buffer containing 20 mM of HEPES-KOH (pH 7.5), 50 mM of NH4Cl, 10 mM of Mg(CH3COO)2, 4 mM of β-mercaptoethanol, and 0.05% Tween-20. The binding affinities of peptides 1 and 2, their TPP analogs 3–5, as well as the control compounds for the E. coli ribosome were analyzed via a competition-binding assay using fluorescently labeled BODIPY-Bac(1–10) or BODIPY-ERY, as described before in [38, 54]. The fluorescent compound (16 nM) was mixed with ribosomes (84 nM for BODIPY-Bac(1–10) and 46 nM for BODIPY-ERY) in the buffer. Solutions of the tested compounds were added to the obtained complexes to final concentrations ranging from 0.01 to 100 µM. The mixtures were incubated for 2 h at 26 °C, and then the values of fluorescence anisotropy were measured with a VICTOR X5 Multilabel Plate Reader (PerkinElmer, Waltham, MA, USA) using a 384-well plate. The excitation wavelength was 485 nm, and the emission wavelength was 535 nm. From the data obtained, apparent dissociation constants were calculated.

[2] = system: bacterial translation (E. coli S30 extract); experiment: In vitro translation inhibition of firefly luciferase mRNA, E. coli S30 extract; format: biochemical; settings: 30 µM
Description: Briefly, in vitro-transcribed firefly luciferase mRNA (fluc) was translated using the E. coli S30 Extract System for Linear Templates (Promega, Madison, WI, USA). Reaction mixtures (with a 5 μL total volume) supplemented with 0.1 mM of a mixture of all canonical amino acids, 4 U of RiboLock RNase Inhibitor (Thermo Fisher Scientific, Waltham, MA, USA), and 0.1 mM of D-luciferin (Sigma-Aldrich, Burlington, MA, USA) were pre-incubated at RT for 5 min after the addition of the tested compounds at a final concentration of 30 µM. Then, 50 ng of the mRNA was added to each reaction tube, and the mixtures were immediately subjected to continuous chemiluminescence measurements using the VICTOR X5 Multilabel Plate Reader (PerkinElmer, Waltham, MA, USA) at 37 °C for 30 min. The maximal rates of the firefly luciferase (Fluc) accumulation were calculated using the OriginPro 7.5 software. The values were normalized to a positive control (0.3% DMSO, assigned a value of 100%).

[3] = B. subtilis-CFR (chloramphenicol-resistant), 37 °C
[4] = read-out: IC50 (50% inhibition of viability of cells), A549, 72 h, MTT
[5] = MCF7, 72 h, MTT, read-out: IC50 (50% inhibition of viability of cells)
[6] = VA13, 72 h, MTT, read-out: IC50 (50% inhibition of viability of cells)
[7] = HEK293T, MTT, read-out: IC50 (50% inhibition of viability of cells)

Compound	MIC (E. coli BW25113)	MIC (B. subtilis 168)	MIC (E. coli JW0368 ΔsbmA)	MIC (B. subtilis CFR; [3])	IC50 (A549; [4])	IC50 (MCF7; [5])	IC50 (VA13; [6])	IC50 (HEK293T; [7])	comparison of MIC values, E. coli ΔsbmA versus wild type (E. coli JW0368 ΔsbmA)	inhibitory effect on growth of bacterial cells [1]	reporter induction (Katushka2S red pseudocolor = protein synthesis inhibition) [1]	effect on membrane potential of B. subtilis (B. subtilis)	Kd (70S E. coli ribosome)	MIC (B. subtilis CFR; CFR)	IC50 (A549; 72 h)	IC50 (MCF7; 72 h)	IC50 (VA13; 72 h)	IC50 (HEK293T)	inhibition of bacterial translation of firefly luciferase (Fluc) mRNA [2]
CCCC[P+](c1ccccc1)(c1ccccc1)c1ccccc1 [C4-TPP, reference compound]	>100 µM	>100 µM	>100 µM	>100 µM	6.2 ± 0.9 µM	8 ± 2 µM	11 ± 2 µM	2.9 ± 0.5 µM	–	–	–	–	–	–	–	–	–	–	–
CCCCCCCCCC[P+](c1ccccc1)(c1ccccc1)c1ccccc1 [C10-TPP, reference compound]	50 µM	1.6 µM	50 µM	0.8 µM	< 0.16 µM	0.25 ± 0.07 µM	< 0.16 µM	< 0.16 µM	the same	caused a large growth inhibition zone	did not induce the reporters	–	–	–	–	–	–	–	–
CC[C@H](C)[C@H](NC(=O)[C@H](CCCNC(=N)N)NC(=O)[C@H](CCCNC(=N)N)NC(=O)CCCCCCCCCC[P+](c1ccccc1)(c1ccccc1)c1ccccc1)C(=O)N[C@@H](CCCNC(=N)N)C(=O)N1CCC[C@H]1C(=O)N[C@@H](CCCNC(=N)N)C(=O)N1CCC[C@H]1C(=O)N1CCC[C@H]1C(=O)N[C@@H](Cc1ccc(O)cc1)C(=O)N[C@@H](CC(C)C)C(=O)O [Compound 5, TPP-C10-Bac(1–10, R/Y)] (X3-RRIRPRPPYL-OH)	5.3 µM	12.5 µM	5.3 µM	–	–	–	–	–	the same	demonstrated an inhibitory effect on the growth of bacterial cells	–	decrease in the membrane potential, to a somewhat lesser extent	0.16 ± 0.02 µM	12.5 µM	> 50 µM	> 20 µM	> 50 µM	36 ± 4 µM	weakly inhibited
